# Measurements from US20140030808A1, “Method for Cellular RNA Expression” (BIONTECH AG, priority 2010, published 2014).
# Legend:
# [1] = tested on: immature dendritic cells (iDCs); assay type: cell-based, human; conditions: 0.5 μM to 2 μM
# CCD1079SK fibroblasts = assay: Intracellular abundance and half-life of IVT-RNA constructs (qRT-PCR); assay type: cell-based, human
# Protocol: (A) CCD1079SK fibroblasts were either mock electroporated or electroporated with IVT RNA encoding for firefly luciferase (1 μg), eGFP (1.25 μg), SV40 Large T (1.25 μg), HPV16-E6 (1.25 μg), OCT4, SOX2, KLF4, cMYC, NANOG and LIN28 (2.5 μg OCT4 and equimolar amounts for the others). Electroporations were performed in 2 mm gap cuvettes using optimized parameters for CCDs. After electroporation cells were either left untreated or incubated with 2 μM C13H8N4OS for 24 h or 48 h. After 72 h cells were harvested to extract total RNA and perform qRT-PCR analysis for the codon optimized IVT-RNA constructs OCT4 and SOX2. […] Decay of transcripts was plotted against time and difference between half-lifes (t1/2) of the construct in absence or presence of C13H8N4OS was calculated (Δt1/2=t1/2 (+C13H8N4OS)−t1/2 (−C13H8N4OS)). […]
# Total cellular RNA was extracted from cells with RNeasy Mini Kit or RNeasy Micro Kit (Qiagen, Hilden, Germany), reverse transcribed with oligo-dT18 using Superscript II (Invitrogen, Carlsbad, Calif., USA), and subjected to real-time quantitative analysis on ABI PRISM 7700 Sequence Detection System instrument and software (Applied Biosystems, Foster City, Calif., USA) using the QuantiTect SYBR Green PCR Kit (Qiagen). […]
# [2] = tested on: human foreskin fibroblasts; assay: Luciferase activity after lipofection (RNAiMAX) of IVT RNA; assay type: cell-based; conditions: increasing concentrations
# Protocol: 1.2 μg 5′-triphosphorylated and non-modified IVT RNA (0.8 μg encoding luciferase, 0.4 μg GFP) was packaged with 6 μl RNAiMAX transfection reagent (Invitrogen) and transfected into human foreskin fibroblasts and the medium supplemented with increasing concentrations of C13H8N4OS. At the indicated time points the cells were lysed and luciferase activity of the lysates was measured. […] This effect was dose-dependent.
# To study whether C13H8N4OS could also enhance translation upon liposomal IVT RNA transfer, 1.2 μg 5′-triphosphorylated and non-modified IVT RNA (0.8 μg encoding luciferase, 0.4 μg GFP) was packaged with 6 μl RNAiMAX transfection reagent (Invitrogen) and transfected into human foreskin fibroblasts. After 3 h incubation with the transfection mixture, the medium was renewed and supplemented with increasing concentrations of C13H8N4OS. At the time points indicated in FIG. 15 the cells were lysed using luciferase stabilizing passive lysis buffer (Promega) according to the manufacturer's instructions. By the end of the time course, luciferase activity of all lysates was measured. […] This effect was dose-dependent. One of three independently performed experiments is shown. Thus, the effect of C13H8N4OS on translation of IVT RNA is not restricted to the delivery via electroporation. […]
compound,measurement,setting,value
"O=C1Nc2ccc3ncsc3c2/C1=C/c1c[nH]cn1 [C13H8N4OS, 6,8-dihydro-8-(1H-imidazol-5-ylmethylene)-7H-pyrrolo[2,3-g]benzothiazol-7-one]",luciferase expression,[1],loss of luciferase expression
same,"abundance of IVT RNA (OCT4, SOX2 constructs)","CCD1079SK fibroblasts; 2 μM for 24 h or 48 h, harvested after 72 h",increased the abundance of IVT RNA for 72 h
same,"prolongation of half life of IVT RNA constructs OCT4, SOX2, KLF4 and cMYC (Δt1/2)","CCD1079SK fibroblasts; 2 μM for 80 h, presence vs absence of C13H8N4OS",1 to 2.5 h
same,dose dependence of the effect on translation of luciferase,[2],dose-dependent
same,translation of luciferase after liposomal IVT RNA transfer,[2],stabilizing effect on translation of luciferase
